Reference: PubChem BioAssay (NCI)
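Step 1: Grow cells in 96-well plates. Step 2: Expose to compound for 48 hours at 5 concentrations. Step 3: Interpolate endpoints linearly; if unreached, use highest concentration. GI50: concentration for 50% inhibition of growth. TGI denotes the concentration required for complete inhibition of growth.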

Key:
Experiment in all cases: growth of human tumour cells (NCI), 48 h
[1] = test system: KM12 colon
[2] = test system: SR leukemia
[3] = test system: SW-620 colon
[4] = test system: HT29 colon
[5] = test system: MDA-MB-231 breast
[6] = test system: M14 melanoma
[7] = test system: OVCAR-8 ovarian
[8] = test system: OVCAR-4 ovarian
[9] = test system: NCI-H226 lung
[10] = test system: HCC-2998 colon

| SMILES | TGI [1] [µM] | TGI [2] [µM] | TGI [3] [µM] | TGI [4] [µM] | TGI [5] [µM] | TGI [6] [µM] | TGI [7] [µM] | TGI [8] [µM] | TGI [9] [µM] | TGI [10] [µM] | GI50 [1] [µM] | GI50 [2] [µM] | GI50 [3] [µM] | GI50 [4] [µM] | GI50 [5] [µM] | GI50 [6] [µM] | GI50 [7] [µM] | GI50 [8] [µM] | GI50 [9] [µM] | GI50 [10] [µM] |
| --- | --- | --- | --- | --- | --- | --- | --- | --- | --- | --- | --- | --- | --- | --- | --- | --- | --- | --- | --- | --- |
| O=C1CCC(c2ccccc2)(c2ccccc2)CC1 | > 100 | > 100 | > 100 | > 100 | > 100 | > 100 | > 100 | > 100 | > 100 | – | – | – | – | – | – | – | – | – | – | – |
| Nc1nc(Cl)cc(NCCCCCCCCCCNc2cc(Cl)nc(N)n2)n1 | > 100 | > 100 | > 100 | > 100 | – | > 100 | 63 | > 100 | 20.3 | > 100 | – | – | – | – | – | – | – | – | – | – |
| CCNC1=CC(=O)c2ncccc2C1=O | 15.1 | 11 | 4.3 | 6.59 | 21.1 | 2.46 | 14.2 | 8.12 | 4.42 | 5.37 | 3.25 | 3.71 | 1.75 | 2.82 | 2.66 | 1.11 | 3.04 | 1.64 | 1.85 | 2.16 |
| Cc1ccc(C)c(NC(=O)CCc2n[nH]c(=S)o2)c1 | > 100 | > 100 | > 100 | > 100 | – | > 100 | > 100 | > 100 | > 100 | > 100 | – | – | – | – | – | – | – | – | – | – |
| CCOc1ccc(N2C(N)=NC(N)=NC2(C)C)cc1 | > 100 | > 100 | > 100 | > 100 | > 100 | – | > 100 | > 100 | > 100 | > 100 | 74 | 74.6 | 37.6 | 58.1 | > 100 | – | 62.3 | > 100 | > 100 | > 100 |
| Cn1cc(/C=C2\C(=O)Nc3cccnc32)c2ccccc21 | > 25 | > 25 | > 25 | > 25 | > 25 | > 25 | > 25 | > 25 | > 25 | > 25 | 0.885 | > 25 | 12.6 | 13.1 | 11.1 | 9.32 | 16.9 | 24.8 | 10.8 | > 25 |
| C1CCN2CC34CC(CC5CCCN(C6CCCC3N6)C54)C2C1 (centres undefined) | > 100 | > 100 | > 100 | > 100 | > 100 | > 100 | > 100 | > 100 | > 100 | > 100 | – | – | – | – | – | – | – | – | – | – |
| NC(=O)c1ccc(NC(=O)c2oc3ccccc3c2-c2cnn(-c3ccccc3)c2)cc1 | > 100 | > 100 | > 100 | – | > 100 | > 100 | > 100 | – | > 100 | > 100 | > 100 | > 100 | > 100 | – | 4.65 | > 100 | > 100 | – | 2.98 | > 100 |
| CC(C)(C)c1ccc(C(O)(c2ccc(C(C)(C)C)cc2)c2ccc(C(C)(C)C)cc2)cc1 | > 100 | > 100 | > 100 | > 100 | > 100 | > 100 | > 100 | > 100 | > 100 | > 100 | – | – | – | – | – | – | – | – | – | – |
| Fc1cc(Nc2ccc3c(OCCCN4CCOCC4)cccc3n2)ccc1Cl | 5.46 | 6.64 | – | 3 | – | 4.42 | 15.3 | 88.5 | 7.83 | 3.49 | 2.3 | 1.69 | – | 1.53 | – | 2.05 | 4.03 | 3.75 | 2.76 | 1.78 |
| Cc1[nH]nc(C(=O)N/N=C/c2cccs2)c1N=NN(C)C | > 100 | – | 93.5 | 17.4 | 66.6 | > 100 | 33.1 | 31 | 70.1 | 26.6 | – | – | – | – | – | – | – | – | – | – |
| CCn1c(-c2cc3ccccc3cc2OC(=O)c2ccccc2)n[nH]c1=S | > 50 | > 50 | > 50 | > 50 | > 50 | > 50 | – | > 50 | > 50 | – | 42.3 | 19.8 | > 50 | 42.4 | 25.2 | > 50 | – | > 50 | > 50 | – |
| COc1cc(Nc2ncc(-c3ccccc3)o2)cc(OC)c1OC | > 25 | – | > 25 | > 25 | > 25 | > 25 | > 25 | > 25 | > 25 | > 25 | 0.152 | – | 0.986 | 0.951 | 2.5 | 1.26 | 8.3 | 1.05 | 2.97 | 5.08 |
| C/C(=N\NC(=S)Nc1ccc([N+](=O)[O-])cc1S(=O)(=O)O)c1ccccn1 | > 100 | 75.6 | 56.5 | > 100 | – | > 100 | > 100 | 95.3 | > 100 | > 100 | – | – | – | – | – | – | – | – | – | – |
| NC(=NC1C2CC3CC(C2)CC1C3)Nc1ccc(I)cc1 (centres undefined) | – | 6.84 | 11.6 | 10.8 | 11 | 5.04 | 23.4 | 14 | 22.2 | 3.61 | – | 2.49 | 2.64 | 3.1 | 3.31 | 2.08 | 6.61 | 3.26 | 5.41 | 1.77 |
| N#CC(/C(=N\NC(N)=S)C(=O)NC1C2CC3CC(C2)CC1C3)c1ccc(Cl)cc1 (centres undefined) | > 100 | > 100 | > 100 | > 100 | – | > 100 | > 100 | > 100 | > 100 | > 100 | – | – | – | – | – | – | – | – | – | – |
| COCCn1cc(-c2csc(-c3c[nH]c4ccc(F)cc34)n2)c2cccnc21 | > 100 | > 100 | > 100 | > 100 | > 100 | > 100 | > 100 | > 100 | – | > 100 | 1.77 | 3.24 | 3.63 | 2.9 | 2.59 | 3.14 | 4.1 | 2.59 | – | 4.54 |
